Measurements published in article PMC5175396, “Cytotoxicity of Plumbagin, Rapanone and 12 other naturally occurring Quinones from Kenyan Flora towards human carcinoma cells” (BMC Pharmacology & Toxicology, 2016).
Like-named read-outs stand apart in the source and are kept apart here. One block for each compound: values may come before it.

Key:
[1] = test system: SPC212 human mesothelioma cell line; test: Neutral red (NR) uptake cytotoxicity assay, SPC212; assay type: cell-based; conditions: for IC50: Homo sapiens, 72 h
From the text: (§1) Six human cancer cell lines and one normal cell line were used in this study. They included A549 human non-small cell lung cancer (NSCLC) cell line, obtained from the Institute for Fermentation, Osaka (IFO, Japan) and provided by Prof. Dr. Tansu Koparal (Anadolu University, Eskisehir, Turkey), SPC212 human mesothelioma cell line obtained from American Type Culture Collection (ATCC) and provided by Dr. Asuman Demiroğlu Zergeroğlu (Gebze Technical University, Kocaeli, Turkey), DLD-1 colorectal adenocarcinoma cell lines obtained from ATCC (CCL-221), Caco2 colorectal adenocarcinoma cells (ATCC, HTB-37) obtained from the ŞAP Institute of Turkey (Ankara), HepG2 hepatocarcinoma cells (ATCC, HB-8065) and MCF-7 breast adenocarcinoma cells (ATCC, HTB-22) were provided by Prof. Dr. Tansu Koparal (Anadolu University, Eskisehir, Turkey). The normal CRL2120 human skin fibroblasts were obtained from ATCC [CCD1094Sk (ATCC, CRL-2120)]. The cells were maintained as a monolayer in DMEM medium (Sigma-aldrich, Munich, Germany) medium supplemented with 10% fetal calf serum and 1% penicillin (100 U/mL)-streptomycin (100 μg/mL) in a humidified 5% CO2 atmosphere at 37 °C.
(§2) The cytotoxicity of samples was performed by NR uptake assay as previously described. This method is based on the ability of viable cells to incorporate and bind the supravital dye NR in the lysosomes. The procedure is cheaper and more sensitive than other cytotoxicity tests. […] Briefly, cells were detached by treatment with 0.25% trypsin/EDTA (Invitrogen) and an aliquot of 1 × 10^4 cells was placed in each well of a 96-well cell culture plate […]. The cells were allowed to attach overnight and subsequently treated with different concentrations of the 14 compounds. Each of the studied samples was immediately added in varying concentrations in additional 100 μL of culture medium to obtain a total volume of […]/well. After 72 h incubation in humidified 5% CO2 atmosphere at 37 °C, the medium was removed and 200 μL fresh medium containing 50 μg/mL NR was added to each well and incubation continued for an additional 3 h at 37 °C in 5% CO2 atmosphere. The dye medium was then removed and each well was then washed rapidly with 200 μL phosphate buffer saline (PBS) followed by addition of 200 μL of acetic acid-water-ethanol in water (1:49:50). The plates were kept for 15 min at room temperature to extract the dye and then shaken for a few minutes on a GFL 3012 shaker (Gesellschaft für Labortechnik mbH, Burgwedel, Germany). Absorbance was measured on ELx 808 Ultra Microplate Reader (Biotek) equipped with a 540 nm filter. Each assay was done at least three times, with three replicates each. The viability was evaluated based on a comparison with untreated cells. The IC50 values represent the sample’s concentrations required to inhibit 50% of cell proliferation and were calculated from a calibration curve by linear regression using Microsoft Excel.

[2] = test system: DLD-1 colorectal adenocarcinoma cell lines; test: Neutral red (NR) uptake cytotoxicity assay, DLD-1; assay type: cell-based, human; conditions: Homo sapiens, read-out: IC50 DLD-1
From the text: as §1, §2

[3] = test system: MCF-7 cells; test: Mitochondrial membrane potential (MMP) analysis, JC-1 staining, flow cytometry; assay type: cell-based, human; conditions: IC50 (C3), 72 h, control 4.3%
Description: The MMP was analyzed in MCF-7 cells by 5,5′,6,6′-tetrachloro-1,1′,3,3′-tetraethylbenzimidazolylcarbocyanine iodide) (JC-1; Biomol, Hamburg, Germany) staining as previously reported. […] Subsequently, cells were measured in a BD FACS Aria I Cell Sorter Flow Cytometer (Becton-Dickinson, Germany). The JC-1 signal was measured at an excitation of 561 nm (150 mW) and detected using a 586/15 nm band-pass filter. The signal was analyzed at 640 nm excitation (40 mW) and detected using a 730/45 nm bandpass filter. Cytographs were analyzed using BD FACSDiva™ Flow Cytometry Software Version 6.1.2 (Becton-Dickinson). All experiments were performed at least in triplicate.

[4] = test system: Caco2 colorectal adenocarcinoma cells; test: Neutral red (NR) uptake cytotoxicity assay, Caco-2; assay type: cell-based, human; conditions: Homo sapiens, Caco-2; neutral red assay, 72 h incubation
From the text: as §1, §2

[5] = test system: MCF-7 cells; test: Flow cytometry cell cycle analysis and detection of apoptotic cells; assay type: cell-based, human; conditions: IC50, 72 h, non-treated cells 3.1%
Description: The cell-cycle analysis was performed by flow cytometry using BD cycletest^TM Plus DNA Kit Assay (BD Biosciences, San Jose, USA). The BD Cycletest™ Plus DNA kit provides a set of reagents for isolating and staining cell nuclei. Flow cytometric analysis of differentially stained cells is used to estimate the DNA index (DI) and cell-cycle phase distributions. Briefly, MCF-7 cells (3 mL, 1 × 10^5 cells/mL) were seeded into each well of 6-well plates and allowed to attach for 24 h. […] The untreated cells (control) were also included in the assay. They were further trypsinized and suspended in 1 mL PBS, then centrifuged at 400 g for 5 min at room temperature (RT). The cells were further processed according to the manufacturer protocol: addition of 250 μL of solution A (trypsin buffer), 10 min incubation at RT followed by the addition of 200 μL of solution B (trypsin inhibitor and RNAse buffer), 10 min incubation at RT followed by the addition of 200 μL of solution C (2–8 °C) (propidium iodide stain solution), 10 min on ice. The cells were further measured on a BD FACS Aria I Cell Sorter Flow Cytometer (Becton-Dickinson, Germany). For each sample, 10^4 cells were counted. For PI excitation, an argon-ion laser emitting at 488 nm was used. Cytographs were analyzed using BD FACSDiva™ Flow Cytometry Software Version 6.1.2 (Becton-Dickinson).

[6] = test system: normal CRL2120 human skin fibroblasts; test: Neutral red (NR) uptake cytotoxicity assay, normal CRL2120 fibroblasts; assay type: cell-based; conditions: Skin fibroblast, 72 h incubation
From the text: as §1, §2

[7] = test system: MCF-7 breast adenocarcinoma cells; test: Neutral red (NR) uptake cytotoxicity assay, MCF-7; assay type: cell-based, human; conditions: for IC50: Homo sapiens, MCF7, 72 h, read-out: IC50 MCF-7
From the text: as §1, §2

[8] = test system: HepG2 hepatocarcinoma cells; test: Neutral red (NR) uptake cytotoxicity assay, HepG2; assay type: cell-based, human; conditions: for IC50: Homo sapiens, read-out: IC50 HepG2
From the text: as §1, §2

[9] = test system: six tested cancer cell lines (A549, SPC212, DLD-1, Caco-2, MCF-7, HepG2); test: Neutral red uptake assay, statements over the six tested cancer cell lines; assay type: cell-based, human
From the text: as §1, §2

[10] = test system: MCF-7 cells; test: Measurement of reactive oxygen species (ROS), DCFH-DA; assay type: cell-based, human; conditions: at IC50, 24 h
Description: This is a cell-based assay for measuring hydroxyl, peroxyl, or other reactive oxygen species activity within a cell. The assay employs the cell-permeable fluorogenic probe 2′,7′-dichlorodihydrofluorescin diacetate (DCFH-DA). DCFH-DA is diffused into cells and is deacetylated by cellular esterases to non-fluorescent 2′,7′-dichlorodihydrofluorescin (DCFH), which is rapidly oxidized to highly fluorescent 2′,7′-dichlorofluorescein (DCF) by ROS. […] After addition of 100 μL 1× DCFH-DA/DMEM solution to cells and incubation at 37 °C for 30–60 min, the fluorescence was measured using SpectraMax® M5 Microplate Reader (Molecular Devices, Biberach, Germany) at 480/530 nm. All experiments were performed at least in triplicate.

[11] = test system: PF-382 leukemia T-cells, MiaPaCa-2 pancreatic cells, U87MG glioblastoma-astrocytoma cells, Colo-38 skin melanoma cells, HeLa and Caski cervical carcinoma cells; design: method as in PMID 21886765; conditions: PF-382, MiaPaCa-2, U87MG, Colo-38, HeLa, read-out: IC50 against a panel of cancer cell lines; cited from earlier work
[12] = Neutral red (NR) uptake cytotoxicity assay, Caco-2; assay type: cell-based, human; conditions: human; IC50 in CRL2120 normal fibroblasts divided by IC50 in Caco-2; read-out: selectivity index Caco-2 (converted)
From the text: as §1, §2

[13] = test system: A549 human non-small cell lung cancer (NSCLC) cell line; test: Neutral red (NR) uptake cytotoxicity assay, A549; assay type: cell-based
From the text: as §1
as §2, with “lysosomes.” for “lysosomes. The procedure is cheaper and more sensitive than other cytotoxicity tests.”

Structure (SMILES): COc1cccc2c1C(=O)c1c(O)c3c(c(O)c1C2=O)C[C@@](O)(C(=O)CO)C[C@@H]3O[C@H]1C[C@H](N)[C@H](O)[C@H](C)O1 [Doxorubicin, reference compound]
IC50 ([1]; read-out: IC50 SPC#): 0.07 ± 0.01 µM
IC50 ([2]; DLD-1, 72 h): 370 ± 50 nM
MMP, gate P2 (loss / depletion of MMP) [3]: 26%
IC50 [4]: 0.72 ± 0.13 µM
Sub-G0/G1 (apoptotic) cells, % of cells [5]: 60%
IC50 [6]: 590 ± 10 nM
IC50 [7]: 0.35 ± 0.05 µM
IC50 ([8]; HepG2, 72 h): 0.18 ± 0.03 µM
IC50 ([9]; Homo sapiens, bound valid for all six cancer cell lines, neutral red assay): < 100 µM
increase in ROS levels as compared with non-treated cells [10]: more than 2 fold

Structure (SMILES): CC(=O)c1cc2c(o1)C(=O)c1ccccc1C2=O [2-acetylfuro-1,4-naphthoquinone]
IC50 [11]: < 10 µM

tested cancer cell lines in which recordable IC50 values were obtained ([9]; out of six cancer cell lines): 5/6
Structure (SMILES): CCCCC1=C(O)C(=O)C=C(O)C1=O [Compound 7, 2,5-dihydroxy-3-butyl-2,5-cyclohexadiene-1,4-dione]
IC50 ([1]; neutral red assay, 72 h incubation, read-out: IC50 SPC212): 87.9 ± 5.66 µM
selectivity index SPC212 ([1]; IC50 in CRL2120 normal fibroblasts divided by IC50 in SPC212): > 2.32
IC50 ([2]; DLD-1, neutral red assay, 72 h incubation): > 204000 nM
selectivity ratio at 72 h [12]: > 2.27
IC50 [4]: 89.7 ± 8.8 µM
IC50 [6]: > 204000 nM
IC50 ([7]; neutral red assay, 72 h incubation): 64.6 ± 13.4 µM
selectivity index MCF-7 ([7]; IC50 in CRL2120 normal fibroblasts divided by IC50 in MCF-7): > 3.16
IC50 ([13]; Homo sapiens, A549, 72 h, neutral red assay, 72 h incubation): 68.6 ± 7.55 µM
selectivity index A549 ([13]; IC50 in CRL2120 normal fibroblasts divided by IC50 in A549): > 2.97
IC50 ([8]; HepG2, neutral red assay, 72 h incubation): 176 ± 28.5 µM
selectivity index HepG2 ([8]; IC50 in CRL2120 normal fibroblasts divided by IC50 in HepG2): > 1.16
